Measured values as given in patent publication US12617793B2, “Organic electron transfer mediator and device comprising same” (I-sens, Inc., priority 2019, dated 2026).

Key:
[1] = Cyclic voltammetry of organic electron-transfer mediators (oxidation reduction potential vs Ag/AgCl); assay type: physicochemical; conditions: for Eox / Ered: pH 7.0, 2 mg/mL in water, 0.1M PBS buffer, vs Ag/AgCl
[2] = Stability test by pH and solvent (CV after one day of the solution; colour change); assay type: physicochemical
[3] = Solubility depending on the solvent (seen from CV current strength); conditions: for solubility in water: water / 0.1 M PBS aqueous buffer
[4] = compared to the Ag/AgCl reference electrode; cited from earlier work

## N#Cc1cc2nc3c(=O)[nH]c(=O)nc-3n(CCCS(=O)(=O)O)c2cc1C#N [Chemical formula 2, 3-(7,8-dicyano-2,4-dioxo-3,4-dihydrobenzo[g]pteridin-10(2H)-yl)propane-1-sulfonic acid]
[1]; 0.1M PBS in H2O
  E1/2 (vs Ag/AgCl): −0.172 V
[1]; 0.1M TBAP in CH3CN
  E1/2 (vs Ag/AgCl): −0.315 V
[1]; 0.1M TBAP in DMSO
  E1/2 (vs Ag/AgCl): 0.061 V
[1]
  Eox: −0.139 V
  Ered: −0.229 V
[2]; 0.1M TBAP in DMSO
  stability in DMSO: changed to a different structure under DMSO
[2]; CV after one day of the solution at pH 4-9
  stability by pH: the current value decreased under the basic condition

## N#Cc1cc2nc3c(=O)[nH]c(=O)nc-3n(Cc3ccccc3)c2cc1C#N [Chemical formula 3, 10-benzyl-7,8-dicyanoisoalloxazine]
[1]; 0.1M TBAP in DMSO
  E1/2 (vs Ag/AgCl): −0.285 V

## CC(C)(C)OC(=O)NCCCCCn1c2nc(=O)[nH]c(=O)c-2nc2cc(C#N)c(C#N)cc21 [Chemical formula 4, tert-butyl (5-(7,8-dicyano-2,4-dioxo-3,4-dihydrobenzo[g]pteridin-10(2H)-yl)pentyl)carbamate]
[1]; 0.1M TBAP in CH3CN
  E1/2 (vs Ag/AgCl): −0.330 V

## CC(C)(C)OC(=O)NCCCCCCn1c2nc(=O)[nH]c(=O)c-2nc2cc(C#N)c(C#N)cc21 [Chemical formula 5, tert-butyl (6-(7,8-dicyano-2,4-dioxo-3,4-dihydrobenzo[g]pteridin-10(2H)-yl)hexyl)carbamate]
[1]; 0.1M TBAP in CH3CN
  E1/2 (vs Ag/AgCl): −0.330 V

## N#Cc1cc2nc3c(=O)[nH]c(=O)nc-3n(CCCCCO)c2cc1C#N [Chemical formula 6, 10-(5-hydroxypentyl)-2,4-dioxo-2,3,4,10-tetrahydrobenzo[g]pteridine-7,8-dicarbonitrile]
[1]; 0.1M TBAP in DMSO
  E1/2 (vs Ag/AgCl): −0.325 V

## N#Cc1cc2nc3c(=O)[nH]c(=O)nc-3n(CCOCCO)c2cc1C#N [Chemical formula 7, 10-(2-(2-hydroxyethoxy)ethyl)-2,4-dioxo-2,3,4,10-tetrahydrobenzo[g]pteridine-7,8-dicarbonitrile]
[1]; 0.1M TBAP in DMSO
  E1/2 (vs Ag/AgCl): −0.315 V

## N#Cc1cc2nc3c(=O)[nH]c(=O)nc-3[nH]c2cc1C#N [Chemical formula 8, 2,4-dioxo-2,3,4,10-tetrahydrobenzo[g]pteridine-7,8-dicarbonitrile]
[1]; 0.1M TBAP in DMSO
  E1/2 (vs Ag/AgCl): −0.494 V

## Cc1ccc(Cn2c3nc(=O)[nH]c(=O)c-3nc3cc(C#N)c(C#N)cc32)cc1 [Chemical formula 9, 10-(4-methylbenzyl)-2,4-dioxo-2,3,4,10-tetrahydrobenzo[g]pteridine-7,8-dicarbonitrile]
[1]; 0.1M TBAP in DMSO
  E1/2 (vs Ag/AgCl): −0.296 V

## COc1ccc(Cn2c3nc(=O)[nH]c(=O)c-3nc3cc(C#N)c(C#N)cc32)cc1 [Chemical formula 10, 10-(4-methoxybenzyl)-2,4-dioxo-2,3,4,10-tetrahydrobenzo[g]pteridine-7,8-dicarbonitrile]
[1]; 0.1M TBAP in DMSO
  E1/2 (vs Ag/AgCl): −0.298 V

## C=CCn1c2nc(=O)[nH]c(=O)c-2nc2cc(C#N)c(C#N)cc21 [Chemical formula 15]
[3]
  solubility in water: very low
[1]; 0.1M PBS in H2O
  E1/2 (vs Ag/AgCl): −0.196 V
[1]
  Eox: −0.120 V
  Ered: −0.216 V

## N#Cc1cc2nc3c(=O)[nH]c(=O)nc-3n(CCO)c2cc1C#N [Chemical formula 16]
[3]; 0.1M TBAP in CH3CN
  solubility in acetonitrile: very low
[3]
  solubility in water: prominent
[1]; 0.1M PBS in H2O
  E1/2 (vs Ag/AgCl): −0.154 V
[1]; 0.1M PBS in H2O, listed as drawing 56
  E1/2 (vs Ag/AgCl): −0.153 V
[1]; 0.1M TBAP in CH3CN
  E1/2 (vs Ag/AgCl): −0.319 V
[1]; 0.1M TBAP in DMSO
  E1/2 (vs Ag/AgCl): −0.315 V

## Cc1cc2nc3c(=O)[nH]c(=O)nc-3n(C)c2cc1C [flavin [or isoalloxazine]derivative]
[4]
  oxidation reduction potential: −0.46 V
